Measurements: patent publication US10413505B1, “Pharmaceutical compositions and methods of using the same” (priority 2017, dated 2019)

Assays:
[1] = Example 1 urinary pharmacokinetics after intranasal administration; format: in vivo, human; conditions: healthy subjects; single intranasal 160 mg cocaine HCl; urine 0-12 h; metabolites as cocaine equivalents
Experimental: A single dose of a pharmaceutical composition was administered to both nostrils using cottonoid pledgets. […] Each pledget absorbed approximately 1 mL of pharmaceutical composition (i.e., 40 mg cocaine hydrochloride). Two soaked pledgets were placed into each nasal cavity of the subject and against the anterior septum for 20 minutes; thus, a total dose of 160 mg of cocaine hydrochloride was administered.
Urine samples were collected pre-dose and at the following intervals from the start of intranasal application of the pharmaceutical composition: 0-2 hours, 2-4 hours, 4-8 hours, and 8-12 hours. […] A 25-μL aliquot of each urine sample was processed by liquid-liquid extraction.
Urinary pharmacokinetic parameters were analyzed using noncompartmental methods.

[2] = Example 3 plasma pharmacokinetics, normal hepatic function vs hepatic impairment
[3] = Example 2 plasma pharmacokinetics, normal renal function vs severe renal impairment; conditions: single intranasal 160 mg cocaine HCl, plasma
[4] = normal hepatic function, single intranasal 160 mg cocaine HCl, plasma
[5] = plasma, subjects with hepatic impairment, single intranasal dose

COC(=O)[C@@H]1[C@H]2CC[C@@H](C[C@@H]1O)N2C [EME, ecgonine methyl ester]
Total Urinary Recovery (Geometric mean) [1]: 252 µg
Total Urinary Recovery (Mean) [1]: 275 µg
Total Urinary Recovery (Median) [1]: 276 µg
Urinary Recovery (Geometric mean) [1]: 0.240 % dose
Urinary Recovery (Mean) [1]: 0.262 % dose
Urinary Recovery (Median) [1]: 0.263 % dose
AUClast, times higher than normal subjects ([2]; Grade B hepatic impairment): approximately 2.4 times
AUClast, times higher than normal subjects ([2]; Grade C hepatic impairment): 2.2 times
AUC0→t (Geometric mean) [2, 4]: 61.2 ng·h/mL
AUC0→t (Max) [2, 4]: 198 ng·h/mL
AUC0→t (Mean) [2, 4]: 72.9 ng·h/mL
AUC0→t (Median) [2, 4]: 59.1 ng·h/mL
AUC0→t (Min) [2, 4]: 24.5 ng·h/mL
AUC0→∞ (Geometric mean) [2, 4]: 76.1 ng·h/mL
AUC0→∞ (Max) [2, 4]: 212 ng·h/mL
AUC0→∞ (Mean) [2, 4]: 89.6 ng·h/mL
AUC0→∞ (Median) [2, 4]: 72.9 ng·h/mL
AUC0→∞ (Min) [2, 4]: 31.5 ng·h/mL
Clast (Geometric mean) [2, 4]: 1.67 ng/mL
Clast (Max) [2, 4]: 3.72 ng/mL
Clast (Mean) [2, 4]: 1.85 ng/mL
Clast (Median) [2, 4]: 1.60 ng/mL
Clast (Min) [2, 4]: 1.00 ng/mL
Cmax (Geometric mean) [2, 4]: 8.75 ng/mL
Cmax (Max) [2, 4]: 26.8 ng/mL
Cmax (Mean) [2, 4]: 10.0 ng/mL
Cmax (Median) [2, 4]: 7.81 ng/mL
Cmax (Min) [2, 4]: 3.83 ng/mL
Tlast (Geometric mean) [2, 4]: 15.4 h
Tlast (Max) [2, 4]: 28.0 h
Tlast (Mean) [2, 4]: 16.5 h
Tlast (Median) [2, 4]: 12.0 h
Tlast (Min) [2, 4]: 600 min
Tmax (Geometric mean) [2, 4]: 1.33 h
Tmax (Max) [2, 4]: 3.00 h
Tmax (Mean) [2, 4]: 1.45 h
Tmax (Median) [2, 4]: 1.25 h
Tmax (Min) [2, 4]: 30 min
t1/2 (Geometric mean) [2, 4]: 5.99 h
t1/2 (Max) [2, 4]: 9.97 h
t1/2 (Mean) [2, 4]: 6.27 h
t1/2 (Median) [2, 4]: 5.69 h
t1/2 (Min) [2, 4]: 250 min
AUC0→t (Geometric mean) [2, 5]: 146 ng·h/mL
AUC0→t (Mean) [2, 5]: 185 ng·h/mL
AUC0→t (Median) [2, 5]: 140 ng·h/mL
AUC0→∞ (Geometric mean) [2, 5]: 212 ng·h/mL
AUC0→∞ (Mean) [2, 5]: 233 ng·h/mL
AUC0→∞ (Median) [2, 5]: 185 ng·h/mL
Clast (Geometric mean) [2, 5]: 1.57 ng/mL
Clast (Mean) [2, 5]: 1.65 ng/mL
Clast (Median) [2, 5]: 1.67 ng/mL
Cmax (Geometric mean) [2, 5]: 11.3 ng/mL
Cmax (Mean) [2, 5]: 16.1 ng/mL
Cmax (Median) [2, 5]: 9.11 ng/mL
Tlast (Geometric mean) [2, 5]: 26.3 h
Tlast (Mean) [2, 5]: 27.7 h
Tlast (Median) [2, 5]: 32.0 h
Tmax (Geometric mean) [2, 5]: 2.90 h
Tmax (Mean) [2, 5]: 3.84 h
Tmax (Median) [2, 5]: 4.00 h
t1/2 (Geometric mean) [2, 5]: 8.67 h
t1/2 (Mean) [2, 5]: 9.26 h
t1/2 (Median) [2, 5]: 8.3 h
AUC0→t (Geometric mean) ([3]; normal renal function): 41.8 ng·h/mL
AUC0→t (Max) ([3]; normal renal function): 231 ng·h/mL
AUC0→t (Mean) ([3]; normal renal function): 64.0 ng·h/mL
AUC0→t (Median) ([3]; normal renal function): 46.3 ng·h/mL
AUC0→t (Min) ([3]; normal renal function): 9.3 ng·h/mL
AUC0→∞ (Geometric mean) ([3]; normal renal function): 79.3 ng·h/mL
AUC0→∞ (Max) ([3]; normal renal function): 241 ng·h/mL
AUC0→∞ (Mean) ([3]; normal renal function): 94.5 ng·h/mL
AUC0→∞ (Median) ([3]; normal renal function): 66.8 ng·h/mL
AUC0→∞ (Min) ([3]; normal renal function): 44.4 ng·h/mL
Clast (Geometric mean) ([3]; normal renal function): 1.505 ng/mL
Clast (Max) ([3]; normal renal function): 2.58 ng/mL
Clast (Mean) ([3]; normal renal function): 1.583 ng/mL
Clast (Median) ([3]; normal renal function): 1.42 ng/mL
Clast (Min) ([3]; normal renal function): 1.070 ng/mL
Cmax (Geometric mean) ([3]; normal renal function): 5.8 ng/mL
Cmax (Max) ([3]; normal renal function): 19.2 ng/mL
Cmax (Mean) ([3]; normal renal function): 7.5 ng/mL
Cmax (Min) ([3]; normal renal function): 1.8 ng/mL
Tlast (Geometric mean) ([3]; normal renal function): 12.3 h
Tlast (Max) ([3]; normal renal function): 32.0 h
Tlast (Mean) ([3]; normal renal function): 13.5 h
Tlast (Median) ([3]; normal renal function): 12.0 h
Tlast (Min) ([3]; normal renal function): 480 min
Tmax (Geometric mean) ([3]; normal renal function): 2.196 h
Tmax (Max) ([3]; normal renal function): 4.00 h
Tmax (Mean) ([3]; normal renal function): 2.698 h
Tmax (Median) ([3]; normal renal function): 3.0 h
Tmax (Min) ([3]; normal renal function): 20 min
t1/2 (Geometric mean) ([3]; normal renal function): 5.02 h
t1/2 (Max) ([3]; normal renal function): 6.67 h
t1/2 (Mean) ([3]; normal renal function): 5.12 h
t1/2 (Median) ([3]; normal renal function): 5.53 h
t1/2 (Min) ([3]; normal renal function): 217 min
AUC0→t (Geometric mean) ([3]; severe renal impairment): 180.2 ng·h/mL
AUC0→t (Max) ([3]; severe renal impairment): 382 ng·h/mL
AUC0→t (Mean) ([3]; severe renal impairment): 201.1 ng·h/mL
AUC0→t (Median) ([3]; severe renal impairment): 196 ng·h/mL
AUC0→t (Min) ([3]; severe renal impairment): 61.0 ng·h/mL
AUC0→∞ (Geometric mean) ([3]; severe renal impairment): 244.5 ng·h/mL
AUC0→∞ (Max) ([3]; severe renal impairment): 527 ng·h/mL
AUC0→∞ (Mean) ([3]; severe renal impairment): 267.5 ng·h/mL
AUC0→∞ (Median) ([3]; severe renal impairment): 242 ng·h/mL
AUC0→∞ (Min) ([3]; severe renal impairment): 143.9 ng·h/mL
Clast (Geometric mean) ([3]; severe renal impairment): 2.218 ng/mL
Clast (Max) ([3]; severe renal impairment): 5.85 ng/mL
Clast (Mean) ([3]; severe renal impairment): 2.46 ng/mL
Clast (Median) ([3]; severe renal impairment): 1.93 ng/mL
Clast (Min) ([3]; severe renal impairment): 1.51 ng/mL
Cmax (Geometric mean) ([3]; severe renal impairment): 10.3 ng/mL
Cmax (Max) ([3]; severe renal impairment): 20.5 ng/mL
Cmax (Mean) ([3]; severe renal impairment): 11.9 ng/mL
Cmax (Median) ([3]; severe renal impairment): 11.5 ng/mL
Cmax (Min) ([3]; severe renal impairment): 3.2 ng/mL
Tlast (Geometric mean) ([3]; severe renal impairment): 31.5 h
Tlast (Max) ([3]; severe renal impairment): 32.0 h
Tlast (Mean) ([3]; severe renal impairment): 31.5 h
Tlast (Median) ([3]; severe renal impairment): 32.0 h
Tlast (Min) ([3]; severe renal impairment): 1680 min
Tmax (Geometric mean) ([3]; severe renal impairment): 3.715 h
Tmax (Max) ([3]; severe renal impairment): 12.00 h
Tmax (Mean) ([3]; severe renal impairment): 4.53 h
Tmax (Median) ([3]; severe renal impairment): 4.00 h
Tmax (Min) ([3]; severe renal impairment): 90 min
t1/2 (Geometric mean) ([3]; severe renal impairment): 13.16 h
t1/2 (Max) ([3]; severe renal impairment): 25.70 h
t1/2 (Mean) ([3]; severe renal impairment): 13.97 h
t1/2 (Median) ([3]; severe renal impairment): 12.27 h
t1/2 (Min) ([3]; severe renal impairment): 488 min
